Experimental data taken from the supplement of paper PMC10307832.

Experiments:
Assay in all cases: relative viability (nuclei count vs DMSO), 5 days (fraction); higher = more cells survive
[1] = compound: Cc1cnc(CNC(=O)c2c(=O)c3ccc(N4CCCN(C)CC4)nc3n3c2sc2ccccc23)cn1 [CX-5461] + C[C@]1(O)C[C@@H](c2nc(-c3ccc4ccc(-c5ccccc5)nc4c3)c3c(N)nccn32)C1 [Linsitinib] (partner 1 µM)
Outline: (§1)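 Medians of duplicate plates are given as relative viability. That measure is the nuclei count in treated wells divided by the count in vehicle wells. Counts were taken on 4× images of lung cancer cell lines in 1536-well plates, 5 days after pin-tool dosing the day after seeding with one drug alone or a fixed anchor-drug dose plus five library-drug doses (not always all listed) in √10 steps.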

[2] = compound: Cc1cnc(CNC(=O)c2c(=O)c3ccc(N4CCCN(C)CC4)nc3n3c2sc2ccccc23)cn1 [CX-5461] + Cc1nc(Nc2ncc(C(=O)Nc3c(C)cccc3Cl)s2)cc(N2CCN(CCO)CC2)n1 [Dasatinib] (partner 0.075 µM)
Outline: as §1

[3] = compound: Cc1cnc(CNC(=O)c2c(=O)c3ccc(N4CCCN(C)CC4)nc3n3c2sc2ccccc23)cn1 [CX-5461] + Nc1nc2[nH]cc(CCc3ccc(C(=O)N[C@@H](CCC(=O)O)C(=O)O)cc3)c2c(=O)[nH]1 [Pemetrexed] (partner 0.2 µM)
Outline: as §1

[4] = compound: O=C(Nc1cc(C(F)(F)F)cc(C(F)(F)F)c1)c1cc(Cl)ccc1O [IMD-0354] + CS(=O)(=O)CCNCc1ccc(-c2ccc3ncnc(Nc4ccc(OCc5cccc(F)c5)c(Cl)c4)c3c2)o1 [Lapatinib] (partner 2 µM)
Outline: as §1

Row | Cell Line | relative viability ([1]; first compound 0.01 µM) | relative viability ([1]; first compound 0.03162 µM) | relative viability ([1]; first compound 0.1 µM) | relative viability ([1]; first compound 0.3162 µM) | relative viability ([1]; first compound 1 µM) | relative viability ([2]; first compound 0.01 µM) | relative viability ([2]; first compound 0.03162 µM) | relative viability ([2]; first compound 0.1 µM) | relative viability ([2]; first compound 0.3162 µM) | relative viability ([2]; first compound 1 µM) | relative viability ([3]; first compound 0.01 µM) | relative viability ([3]; first compound 0.03162 µM) | relative viability ([3]; first compound 0.1 µM) | relative viability ([3]; first compound 0.3162 µM) | relative viability ([3]; first compound 1 µM) | relative viability ([4]; first compound 0.04 µM) | relative viability ([4]; first compound 0.1265 µM) | relative viability ([4]; first compound 0.4 µM) | relative viability ([4]; first compound 1.265 µM) | relative viability ([4]; first compound 4 µM)
1 | NCI-H1395 | 1.06 | 1.15 | 1.06 | 0.612 | 0.583 | 0.402 | 0.414 | 0.418 | 0.39 | 0.367 | 0.835 | 0.846 | 0.816 | 0.437 | 0.488 | 1.11 | 1.28 | 0.821 | 0.292 | 0.364
2 | NCI-H2126 | 0.728 | 0.727 | 0.71 | 0.731 | 0.679 | 0.54 | 0.568 | 0.562 | 0.672 | 0.413 | 0.697 | 0.713 | 0.687 | 0.672 | 0.634 | 0.793 | 0.803 | 0.655 | 0.768 | 0.378
3 | NCI-H3122 | 0.99 | 1.05 | 0.994 | 1.1 | 0.973 | 0.821 | 0.942 | 0.828 | 0.824 | 0.346 | 0.201 | 0.196 | 0.2 | 0.206 | 0.18 | 1.05 | 0.983 | 0.747 | 0.202 | 0.211
4 | NCI-H1975 | 1.06 | 0.983 | 0.784 | 1 | 0.629 | 0.367 | 0.388 | 0.302 | 0.441 | 0.2 | 0.286 | 0.296 | 0.274 | 0.331 | 0.264 | 1.13 | 0.875 | 0.575 | 0.194 | 0.185
5 | NCI-H2170 | – | – | – | – | – | 0.602 | 0.552 | 0.701 | 0.619 | 0.436 | 0.252 | 0.257 | 0.267 | 0.26 | 0.272 | 0.275 | 0.288 | 0.255 | 0.252 | 0.223
6 | LU99A | 0.562 | 0.575 | 0.494 | 0.345 | 0.53 | 0.759 | 0.499 | 0.439 | 0.341 | 0.172 | 0.197 | 0.175 | 0.159 | 0.188 | 0.179 | 0.708 | 0.952 | 0.604 | 0.247 | 0.165
7 | NCI-H2347 | 0.963 | 1.03 | 1.04 | 0.582 | 0.795 | 0.336 | 0.295 | 0.4 | 0.333 | 0.328 | 0.396 | 0.42 | 0.431 | 0.411 | 0.41 | 0.863 | 0.972 | 0.632 | 0.201 | 0.434
8 | NCI-H2009 | 1.24 | 1.14 | 1.18 | 1.19 | 0.804 | 0.341 | 0.324 | 0.305 | 0.346 | 0.262 | 1.01 | 1.07 | 0.964 | 1.01 | 0.826 | 0.82 | 0.832 | 0.647 | 0.134 | 0.155
9 | HCC-44 | 0.734 | 0.681 | 0.685 | 0.676 | 0.644 | – | – | – | – | – | 0.56 | 0.694 | 0.644 | 0.649 | 0.55 | 0.976 | 1.08 | 0.408 | 0.23 | 0.206
10 | NCI-H1299 | 0.942 | 0.977 | 1.04 | 1.01 | 0.831 | – | – | – | – | – | – | – | – | – | – | 0.844 | 0.964 | 0.462 | 0.221 | 0.185
11 | NCI-H727 | 0.351 | 0.276 | 0.321 | 0.342 | 0.129 | 0.324 | 0.361 | 0.253 | 0.377 | 0.31 | – | – | – | – | – | 0.801 | 0.84 | 0.55 | 0.439 | 0.325
12 | LCLC-103H | 1.14 | 1.16 | 0.895 | 1.21 | 1.12 | 0.527 | 0.583 | 0.384 | 0.609 | 0.53 | 0.426 | 0.482 | 0.46 | 0.401 | 0.4 | – | – | – | – | –
13 | ABC-1 | 1.11 | 0.84 | – | 0.817 | 0.494 | 0.697 | 0.582 | 0.45 | 0.384 | 0.449 | – | – | – | – | – | 1.31 | 1.15 | – | 1.17 | 0.612
14 | NCI-H1650 | – | – | – | – | – | 0.355 | 0.326 | 0.195 | 0.305 | 0.14 | 0.377 | 0.477 | 0.336 | 0.35 | 0.241 | 0.864 | 0.757 | 0.481 | 0.211 | 0.184
15 | ChaGo-K-1 | – | – | – | – | – | 0.57 | 0.57 | 0.575 | 0.469 | 0.253 | 0.251 | 0.256 | 0.243 | 0.214 | 0.255 | – | – | – | – | –
16 | NCI-H1648 | – | – | – | – | – | – | – | – | – | – | 0.631 | 0.847 | 0.686 | 0.832 | 0.494 | – | – | – | – | –
17 | A549 | 0.644 | 0.712 | 0.57 | 0.122 | 0.544 | – | – | – | – | – | – | – | – | – | – | 1.19 | 1.04 | 0.245 | 0.101 | 0.105
18 | NCI-H522 | – | – | – | – | – | 0.886 | 1.04 | 0.916 | – | 0.742 | 1.15 | 1.1 | 0.832 | – | 0.918 | – | – | – | – | –
19 | NCI-H1623 | – | – | – | – | – | 0.524 | 0.473 | 0.521 | 0.568 | 0.534 | – | – | – | – | – | – | – | – | – | –
20 | SW 900 | – | – | – | – | – | 0.45 | 0.541 | 0.701 | 0.4 | 0.211 | 0.437 | 0.52 | – | 0.521 | 0.441 | – | – | – | – | –
21 | IA-LM | 0.644 | 0.863 | 0.852 | 0.688 | 0.415 | – | – | – | – | – | – | – | – | – | – | 0.628 | 0.743 | 0.412 | 0.285 | 0.235
22 | EBC-1 | 0.988 | 1.04 | 1.04 | 0.859 | 0.753 | – | – | – | – | – | – | – | – | – | – | 0.163 | 0.202 | 0.251 | 0.168 | 0.249
